Test results published in patent US9139551B2, “Preparation of a new class of water-soluble ammonium 2,3-dihydroxy-5-((2R,3R)-3,5,7-trihydroxy-4-oxochroman-2-yl) phenolates and their biological activity of alcohol elimination” (priority 2014, dated 2015).

Columns and labels:
[1] = tested on: Balb/C mice; experiment: Deintoxication test (agent 30 min before alcohol); conditions: 2 mg/kg gavage 30 min before 30% ethanol
[2] = tested on: Balb/C mice; experiment: Climbing net test; assay type: in vivo; conditions: 2 mg/kg gavage 30 min before alcohol
Method: Climbing Net Test • Groups design and treatment before experiment are as the same as that in deintoxication test. […] 30 minutes later all mice administrated alcohol (liquid Erguotou, ethonol concentration was diluted to 30%) 0.2 mL/kg BW and placed on a vertical metal net and measured the time when mice climbed on net.

[3] = tested on: Balb/C mice; experiment: Anti-alcoholism test (agent 30 min after alcohol); assay type: in vivo; conditions: 2 mg/kg gavage 30 min after 30% ethanol
Excerpt: Anti-Alcoholism Tests • Groups design and treatment before experiment are as the same as that in Deintoxication test. […]

[4] = Solubility in water
[5] = tested on: Balb/C mice; experiment: Plasma EtOH concentration assay; assay type: in vivo; conditions: intragastric 2 mg/kg
Method: Plasma EtOH Concentration Assay. • Blood samples from the tail vein of mice at different time points (0, 15, 30, 45, 60, 90, 120, 240, 480 and 720 minutes) after EtOH (30% ethanol, 0.2 ml/kg bw) or TDHM (2 mg/kg bw), PDHM (2 mg/kg bw) or DHM (2 mg/kg bw) gavage were collected for plasma EtOH concentrations (plasma [EtOH]) assays. (“BW” or “bw”: body weight) • Briefly, the Balb/C mice were put into a restraint tube and the tail was warmed at 37° C. The tail vein at the tip of the tail was punched with a sharp blade. Approximately 0.2 ml venous blood was dropped to a capillary blood collection tube containing lithium heparin (Ram Scientific). Blood samples were centrifuged at 2500 rpm for 20 min. The supernatant was collected and stored at −80° C. until assay. The EtOH content of each blood sample was measured in duplicate along with EtOH standards using the alcohol oxidase reaction procedures (EnzyChrom™ Ethanol Acid Assay Kit, ECET-100) (Liang et al., 2007). The sample preparations were the same as described above.

SMILES: O=C1c2c(O)cc(O)cc2O[C@H](c2cc(O)c(O)c(O)c2)[C@H]1O [DHM, dihydromyricetin, reference compound]
- Sleep time M ± SD [1]: 135.71 ± 25.25 min
- Tolerance time M ± SD [1]: 25 ± 7.29 min
- Dead number ([1]; 20 mice): 2 piece
- Rate of drunk ([1]; 20 mice): 10%
- climbing time vs normal control mice [2]: significantly prolonged
- climbing ([2]; vertical metal net): 329.75 ± 76.46 min
- Sleep time M ± SD [3]: 138.17 ± 33.73 min
- Tolerance time M ± SD [3]: 18.29 ± 10.07 min
- Rate of drunk ([3]; 20 mice): 0%
- solubility [4]: ≤ 264 µg/mL
- blood alcohol concentration vs control group treated with saline [5]: significantly decreased
